# Results from patent US20180265915A1, “TRANSCRIPTION FACTOR DECOYS” (priority 2008, published 2018).
# Entries after “also recorded” stand apart in the source; their conditions may differ.
# Experiments:
# [1] = system: E. coli; test: FabB decoy growth assay with cerulenin in 96-well plate; format: cell-based, Escherichia coli; conditions: Rich media supplemented with 1 μg/ml cerulenin
# Procedure: The decoy was prepared as described in Example 1.1 and used at various concentrations to transfect a well of a 96-well plate containing 200 μl of Rich media (10 g Tryptone, 5 g NaCl, 1 g Yeast extract per litre and supplemented with 0.2% glucose and 0.4% acetate, final concentrations) supplemented with 1 μg/ml cerulenin (Sigma). The plates were incubated at 37° C. with shaking and absorbance readings (at 595 nM) were taken using a plate reader. All data points were performed in triplicate.
# [2] = system: E. coli; test: FabB TFD growth assay with cerulenin in LB, polymixin co-transfectant; format: cell-based, Escherichia coli
# Procedure: For example, a FabB decoy which targets the regulation of genes essential for fatty acid synthesis may be tested against suitable strain, e.g. E. coli grown in e.g. Luria-Bertani LB media (1% [w/v] Bacto-tryptone, 0.5% [w/v] Yeast extract, 1% [w/v] NaCl) in the presence of an antibiotic which acts on the process of fatty acid synthesis, e.g. Cerulenin.
# The effect of TFDs on the growth of E. coli bacterial cultures was measured as described in Example 4.1 with a few modifications: the media used was LB; the co-transfectant used was 40 nM polymixin, rather than gramicidin; the media was also supplemented with 10 μg/ml Cerulenin (CER). CER is an antibiotic that acts on fatty acid synthesis.
# [3] = system: S. aureus; test: Growth of S. aureus transfected by electroporation under conditions of stress; format: cell-based, Staphylococcus aureus; conditions: BHI or LB media with 30 mM KOH, vs mock-electroporation or unrelated sequence
# Procedure: For example, stress response can be induced in a suitable strain e.g. S. aureus by growing in, e.g. LB media under conditions of stress, e.g. alkali conditions. For example LB media containing KOH, e.g. at 30 mM may be used. Untreated bacteria grow well in this media, due to the induction of the stress response by the alkali conditions, whereas those treated with the SA_sigB decoy, targeting the regulation of sigB which is a major part of the regulatory response to stress, grow poorly.
# Decoy polynucleotides were transfected into S. aureus by electroporation. Bacterial cells were prepared by standard methods. Briefy, cells were grown to early exponential phase in LB media at 37° C. as defined as reaching an Absorbance of 0.3 at […]. The cells were chilled to 4° C. and harvested by low speed centrifugation and washed three times in a similar volume of sterile, ice-cold 10% (v/v) glycerol. Finally the cells were resuspended in a tenth of their original volume in 10% glycerol. […] 200 μl of cells were aliquoted into wells of a 96 well plate that was incubated at 37° C. with moderate shaking, growth was monitored by measuring absorbance.
# [4] = system: M. smegmatis; test: WhiB7 decoy antibiotic sensitisation, growth in shake flasks; format: cell-based, Mycobacterium smegmatis; conditions: 100 nM TFD; sub-inhibitory isoniazid (IZ) or rifampicin (RF); 9H11 + 10% ODAC, 37° C.
# Procedure: A decoy polynucleotide containing the WhiB7 decoy sequence was prepared as described in Example 1.1 and various concentrations were used to transfect M. smegmatis grown in 20 ml of broth (in 200 ml shake flasks containing a wire baffle). The media used was 9H11 (Becton Dickinson) supplemented with 10% ODAC (Becton Dickinson) and sub-inhibitory concentrations of the antibiotics isoniazid (IZ) or rifampicin (RF). The flasks were incubated at 37° C. with shaking and at various intervals samples were withdrawn and their absorbance measured (to monitor cell growth). Flasks were either treated with 100 nM of the WhiB7 TFD (+) or treated with the negative control TFD (−).
# [5] = system: S. aureus; test: Growth studies in 96-well plates (DOTAP/Gramicidin transfection); format: cell-based, Staphylococcus aureus; conditions: 10 nM TFD, DOTAP, 60 nM Gramicidin
# Procedure: Cholesterol/Cy5-labeled decoy polynucleotides were prepared as in section 5.1. Typically 1 Lg of TFD was then complexed with 0.3 μl of the liposomal transfection reagent DOTAP (Roche) and incubated at room temperature for 10 min. The assays to determine their effect on growth of bacterial cells were performed using 96 well plates, each well containing 200 μl of broth consisting of BHI media (from Becton Dickinson), which is not iron-limited, supplemented with 60 nM Gramicidin (from Sigma Corporation. Cat# G5002) or iron-depleted media (NRPMI) similarly supplemented with Gramicidin. The method for iron-depletion is described in full elsewhere (Science (2004) 305:1626-1628). 1 μl of various concentrations of a Cholesterol/Cy5-labeled decoy complexed with TFD were added to each well and their effect on bacterial growth of S. aureus monitored by measuring absorbance of the broth at intervals during incubation. The plates were incubated at 37° C. with shaking and absorbance readings (at 450 nM) were taken using a plate reader. Several decoys were tested: Sig, fhu and SsaA.
substance,measurement,setting,value
"FabB TFD: decoy containing the binding site for the FadR regulator, SEQ ID NO: 6 (DNA TTTATTCCGAACTGATCGGACTTGTTCAGCGTACACGTGTTAGCTATCCTGCGTGCTTCA; transcription factor decoy, method of preparation not given here for this one, further chemistry not given here)",growth of E. coli in broth (absorbance at 595 nM),[1],caused the cells to hardly grow at all
same,sensitivity of E. coli to the action of cerulenin,"[2]; 10 nM TFD, LB, 40 nM polymixin, 10 μg/ml Cerulenin",sensitises the bacteria to antibiotics (cerulenin); also recorded: rendered the bacteria sensitive to the action of cerulenin
same,effect on cells at 20 ug/ml cerulenin,[2]; FabB TFD plus cerulenin,the cells are being killed by the synergenistic action
same,growth of E. coli treated with the decoy versus untreated,"[2]; LB media, Cerulenin 10 μg/ml",grow markedly more slowly and to lower final density
"LytM TFD: YycG/YycF binding site in LytM promoter, SEQ ID NO: 7 (DNA GCTATTTTGTAATGACAATGTAATGAGTTTAGTAAAAA; transcription factor decoy, made by PCR or oligonucleotide ligation, further chemistry not given here; listed as Staphylococcus aureus)",growth of S. aureus under conditions of stress,[3],capable of slowing the growth
"WhiB7 TFD: decoy with WhiB7 binding site, SEQ ID NO: 5, prepared by PCR with cholesterol/Cy5 primers (DNA TGGCCACGGATCCGGGTGACTGCGGGTCCGTGGCCT; PCR-made decoy including vector flanks, 5' cholesterol and Cy5 primer ends, further chemistry not given here)",sensitivity of cells to the antibiotics tested (growth by absorbance),[4],rendered sensitive to both the antibiotics tested
"SsaA TFD: contains the binding site for the two-component regulator WalR, SEQ ID NO: 8 (DNA ATTACAAATTTGTAACAGACTTATTTTA; transcription factor decoy, made by PCR or oligonucleotide ligation, further chemistry not given here; listed as Staphylococcus aureus)",growth of S. aureus under conditions of stress,[3],capable of slowing the growth
same,effect on bacterial growth in BHI medium (non-iron limiting),[5],measurable delay in bacterial growth
same,effect on bacterial growth in iron-limited media,[5]; NRPMI,no effect on bacterial growth
